In patent US10041937B2, “Macrophage identification agent, and identification method, sorting method, evaluation method, screening method and kit using the macrophage identifier agent” (CANON KABUSHIKI KAISHA, priority 2013, dated 2018):

Tested on: M1 macrophages and M2 macrophages differentiated from mouse bone marrow cells
Assay: Subtype identification by staining and flow cytometry of M1 and M2 macrophages differentiated from mouse bone marrow cells
Format: cell-based, Balb/c mouse
Settings: for Resolution ratio R: R=|FM1−FM2|/(WM1+WM2); for Resolution ratio R / Peak position of M1 macrophage / Peak position of M2 macrophage: compound 1 μM; for Peak position of M1 macrophage / Peak position of M2 macrophage: fluorescence intensity at peak top of histogram, 37° C., 30 minutes; for Evaluation of macrophage subtype identification: rated from resolution R
Protocol: The culture of subtypes was performed according to a protocol described in NPL 7. Specifically, bone marrow cells collected from the femur of a Balb/c mouse of 8 to 10 weeks old were dispersed to a concentration of 1×10^6/mL in an IMDM containing 20% FBS and 1% P/S, and 1×10^7 cells were seeded in a 100 mm dish. After further adding an M-CSF (manufactured by Pepro Tech) thereto to a concentration of 50 ng/mL, the cells were incubated for 3 to 4 days in the presence of 5% CO2 at 37° C., so as to differentiate macrophage precursor cells to macrophages. After exchanging the medium, the M-CSF was added to a concentration of 50 ng/mL, and the incubation was performed for further 3 to 4 days in the presence of 5% CO2 at 37° C., and then, the resulting cells were differentiated to macrophage. By adding 200 ng of interferon-γ and 1 μg of […] (both manufactured by Pepro Tech) to the IMDM containing 5% FBS and 1% P/S, the cells were differentiated to the subtype M1. Besides, by adding 100 ng of IL-4 to the IMDM containing 5% FBS and 1% P/S, the cells were differentiated to the subtype M2. After performing the incubation for further 3 days in the presence of 5% CO2 at 37° C., the resultant was rinsed with PBS, and PBS containing 0.25% trypsin and 1 mM EDTA (ethylenediaminetetraacetic acid) was used for collecting, from the dish, the macrophages having been differentiated to the subtypes M1 and M2.
Thereafter, the tube was centrifuged at 180 G for 10 minutes to remove the supernatant, a dye for identifying dead cells (aqua fluorescent reactive dye, manufactured by Invitrogen; which is hereinafter sometimes abbreviated as aqua) was added thereto, and the resultant was incubated at 4° C. for 10 minutes. Subsequently, the tube was centrifuged at 180 G for 10 minutes to remove the supernatant, cells were suspended in a FACS buffer to be analyzed by using FACSCanto (trademark) II flow cytometry apparatus manufactured by BD.
The analysis was performed on a cell population showing a low signal for the aqua, so as to analyze a cell population from which dead cells were eliminated. […] A histogram was prepared by plotting fluorescence intensity obtained in the FITC channel on the abscissa and plotting the number of cells at each fluorescence intensity on the ordinate, which is shown in FIG. 2.
Histograms were prepared by plotting fluorescence intensities obtained in the respective channels on the abscissa and plotting the numbers of cells at each fluorescence intensity on the ordinate. A difference between a fluorescence intensity (FM1) at a peak top of the histogram of the M1 macrophage and a fluorescence intensity (FM2) at a peak top of the histogram of the M2 macrophage is divided by a sum of a peak width (WM1) of the histogram of the M1 macrophage and a peak width (WM2) of the histogram of the M2 macrophage, so as to obtain a resolution R, which was used as an index of the identification ability for a subtype (see the following expression (1)). Resolution R=|FM1−FM2|/(WM1+WM2) Expression (1)

With CSc1ccc(N2c3ccc(/C=C4/SC(=S)N(CCC(=O)O)C4=O)cc3C3CCCC32)cc1 (centres unmarked) [(6)] the “Resolution ratio R” value was 0.504, the “Peak position of M1 macrophage” value was 26.5 and the “Peak position of M2 macrophage” value was 50.4. The “Evaluation of macrophage subtype identification” value (from here on “Evaluation”) was “A (The compound is very good in the subtype identification (namely, the resolution R is 0.5 or more))”.
In the case of COC(=O)C(C)N1C(=O)/C(=C\c2ccc3c(c2)C2CCCC2N3c2ccc(OC)cc2)SC1=S (centres unmarked) [(7)], the “Resolution ratio R” value is reported as 0.567, the “Peak position of M1 macrophage” value is reported as 65.4 and the “Peak position of M2 macrophage” value is reported as 23.6. For the same compound, the “Evaluation” value was “A (The compound is very good in the subtype identification (namely, the resolution R is 0.5 or more))”.
For CCCN1c2ccc(/C=C3/SC(=S)N(CCC(=O)O)C3=O)cc2C2CCCC21 (centres unmarked) [(9)], the “Resolution ratio R” value was 0.828, the “Peak position of M1 macrophage” value was 2.63 and the “Peak position of M2 macrophage” value was 6.69. The “Evaluation” value was “A (The compound is very good in the subtype identification (namely, the resolution R is 0.5 or more))”.
O=C(O)CCN1C(=O)/C(=C\c2cc(Br)c3c(c2)C2CCCC2N3c2ccc(Br)cc2)SC1=S (centres unmarked) [(11)] was tested, and the “Resolution ratio R” value was 0.544, the “Peak position of M1 macrophage” value was 30.5 and the “Peak position of M2 macrophage” value was 16.2. The “Evaluation” value was “A (The compound is very good in the subtype identification (namely, the resolution R is 0.5 or more))”.
For O=C(O)CCN1C(=O)/C(=C\c2ccc3c(c2)C2CCCC2N3c2ccccc2)SC1=S (centres unmarked) [(13)], the “Resolution ratio R” value was 0.714, the “Peak position of M1 macrophage” value was 7.74 and the “Peak position of M2 macrophage” value was 20.4. The “Evaluation” value was “A (The compound is very good in the subtype identification (namely, the resolution R is 0.5 or more))”.
For O=C(O)CCCCCN1C(=O)/C(=C\c2ccc3c(c2)C2CCCC2N3c2ccccc2)SC1=S (centres unmarked) [(17)], the “Resolution ratio R” value was 0.577, the “Peak position of M1 macrophage” value was 7.74 and the “Peak position of M2 macrophage” value was 16.5. The “Evaluation” value was “A (The compound is very good in the subtype identification (namely, the resolution R is 0.5 or more))”.
With CCOC(=O)CN1C(=O)/C(=C\c2ccc3c(c2)C2CCCC2N3c2ccc(C=C(c3ccccc3)c3ccccc3)cc2)SC1=S (centres unmarked) [(19)] the “Resolution ratio R” value was 0.319, the “Peak position of M1 macrophage” value was 0.90 and the “Peak position of M2 macrophage” value was 0.64. For the same compound, the “Evaluation” value was “B (the compound is good in the subtype identification (namely, the resolution R is 0.15 or more and less than 0.5))”.
For O=C(O)Cn1c(=O)/c(=C\c2ccc3c(c2)C2CCCC2N3c2ccc(C=C(c3ccccc3)c3ccccc3)cc2)s/c1=C1/CC(=S)N(Cc2ccccc2)C1=O (centres unmarked) [(20)], the “Resolution ratio R” value was 0.290, the “Peak position of M1 macrophage” value was 4.47 and the “Peak position of M2 macrophage” value was 2.10. For the same compound, the “Evaluation” value was “B (the compound is good in the subtype identification (namely, the resolution R is 0.15 or more and less than 0.5))”.
CCOC(=O)CN1C(=O)/C(=C\c2ccc3c(c2)C2CCCC2N3c2ccc(OC)cc2)SC1=S (centres unmarked) [(21)] was tested, and the “Resolution ratio R” value was 0.351, the “Peak position of M1 macrophage” value was 40.0 and the “Peak position of M2 macrophage” value was 20.3. For the same compound, the “Evaluation” value was “B (the compound is good in the subtype identification (namely, the resolution R is 0.15 or more and less than 0.5))”.
With COc1ccc2cc(N3c4ccc(/C=C5/SC(=S)N(CCC(=O)O)C5=O)cc4C4CCCC43)ccc2c1 (centres unmarked) [(22)] the “Resolution ratio R” value was 0.389, the “Peak position of M1 macrophage” value was 199 and the “Peak position of M2 macrophage” value was 313. For the same compound, the “Evaluation” value was “B (the compound is good in the subtype identification (namely, the resolution R is 0.15 or more and less than 0.5))”.
With O=C(O)CCC(C(=O)O)N1C(=O)/C(=C\c2ccc3c(c2)C2CCCC2N3c2ccccc2)SC1=S (centres unmarked) [(23)] the “Resolution ratio R” value was 0.185, the “Peak position of M1 macrophage” value was 1.10 and the “Peak position of M2 macrophage” value was 1.48. The “Evaluation” value was “B (the compound is good in the subtype identification (namely, the resolution R is 0.15 or more and less than 0.5))”.
In the case of O=C(O)CN1C(=O)/C(=C\c2ccc3c(c2)C2CCCC2N3c2ccccc2)SC1=S (centres unmarked) [(24)], the “Resolution ratio R” value is reported as 0.347, the “Peak position of M1 macrophage” value is reported as 18.1 and the “Peak position of M2 macrophage” value is reported as 27.6. For the same compound, the “Evaluation” value was “B (the compound is good in the subtype identification (namely, the resolution R is 0.15 or more and less than 0.5))”.
With COc1ccc(N2c3ccc(/C=C4/SC(=S)N(CC(=O)O)C4=O)cc3C3CCCC32)cc1 (centres unmarked) [(25)] the “Resolution ratio R” value was 0.346, the “Peak position of M1 macrophage” value was 27.4 and the “Peak position of M2 macrophage” value was 18.2. For the same compound, the “Evaluation” value was “B (the compound is good in the subtype identification (namely, the resolution R is 0.15 or more and less than 0.5))”.
With CCN1c2ccc(/C=C3/SC(=S)N(CC(=O)O)C3=O)cc2C2CCCC21 (centres unmarked) [(26)] the “Resolution ratio R” value was 0.202, the “Peak position of M1 macrophage” value was 3.51 and the “Peak position of M2 macrophage” value was 4.49. The “Evaluation” value was “B (the compound is good in the subtype identification (namely, the resolution R is 0.15 or more and less than 0.5))”.
O=C(O)CN1C(=O)/C(=C\c2ccc3c(c2)C2CCCC2N3Cc2ccccc2)SC1=S (centres unmarked) [(28)] was tested, and the “Resolution ratio R” value was 0.431, the “Peak position of M1 macrophage” value was 9.54 and the “Peak position of M2 macrophage” value was 15.8. For the same compound, the “Evaluation” value was “B (the compound is good in the subtype identification (namely, the resolution R is 0.15 or more and less than 0.5))”.
With CSc1ccc(N2c3ccc(/C=C4/SC(=S)N(CC(=O)O)C4=O)cc3C3CCCC32)cc1 (centres unmarked) [(30)] the “Resolution ratio R” value was 0.257, the “Peak position of M1 macrophage” value was 55.1 and the “Peak position of M2 macrophage” value was 73.9. The “Evaluation” value was “B (the compound is good in the subtype identification (namely, the resolution R is 0.15 or more and less than 0.5))”.
With O=C(O)CN1C(=O)/C(=C\c2ccc3c(c2)C2CCCC2N3c2ccc(C=C(c3ccccc3)c3ccccc3)cc2)SC1=S (centres unmarked) [(31)] the “Resolution ratio R” value was 0.248, the “Peak position of M1 macrophage” value was 65.1 and the “Peak position of M2 macrophage” value was 89.0. For the same compound, the “Evaluation” value was “B (the compound is good in the subtype identification (namely, the resolution R is 0.15 or more and less than 0.5))”.
O=C(O)CCN1C(=O)/C(=C\c2ccc3c(c2)C2CCCC2N3c2ccc(C=C(c3ccccc3)c3ccccc3)cc2)SC1=S (centres unmarked) [(32)] was tested, and the “Resolution ratio R” value was 0.476, the “Peak position of M1 macrophage” value was 88.7 and the “Peak position of M2 macrophage” value was 155. For the same compound, the “Evaluation” value was “B (the compound is good in the subtype identification (namely, the resolution R is 0.15 or more and less than 0.5))”.
CC1=NN(c2ccc(C(=O)O)cc2)C(=O)/C1=C\c1ccc2c(c1)C1CCCC1N2c1ccccc1 (centres unmarked) [(35)] was tested, and the “Resolution ratio R” value was 0.192, the “Peak position of M1 macrophage” value was 1.15 and the “Peak position of M2 macrophage” value was 1.29. The “Evaluation” value was “B (the compound is good in the subtype identification (namely, the resolution R is 0.15 or more and less than 0.5))”.
COc1ccc2cc(N3c4ccc(/C=C5\C(=O)N(c6ccc(C(=O)O)cc6)N=C5C)cc4C4CCCC43)ccc2c1 (centres unmarked) [(36)] was tested, and the “Resolution ratio R” value was 0.344, the “Peak position of M1 macrophage” value was 5.70 and the “Peak position of M2 macrophage” value was 3.82. For the same compound, the “Evaluation” value was “B (the compound is good in the subtype identification (namely, the resolution R is 0.15 or more and less than 0.5))”.
With CCCCCCCCN1C(=O)/C(=c2\s/c(=C/c3ccc4c(c3)C3CCCC3N4c3ccc(C=C(c4ccccc4)c4ccccc4)cc3)c(=O)n2CC(=O)O)SC1=S (centres unmarked) [(38)] the “Resolution ratio R” value was 0.724, the “Peak position of M1 macrophage” value was 3.74 and the “Peak position of M2 macrophage” value was 1.63. The “Evaluation” value was “A (The compound is very good in the subtype identification (namely, the resolution R is 0.5 or more))”.
For CCOC(=O)Cn1c(=O)/c(=C\c2ccc3c(c2)C2CCCC2N3Cc2ccccc2)s/c1=C1/SC(=O)N(CC)C1=O (centres unmarked) [(42)], the “Resolution ratio R” value was 0.616, the “Peak position of M1 macrophage” value was 4.19 and the “Peak position of M2 macrophage” value was 1.79. The “Evaluation” value was “A (The compound is very good in the subtype identification (namely, the resolution R is 0.5 or more))”.
CCN1C(=O)S/C(=c2/s/c(=C/c3ccc4c(c3)C3CCCC3N4Cc3ccccc3)c(=O)n2CC(=O)O)C1=O (centres unmarked) [(43)] was tested, and the “Resolution ratio R” value was 0.411, the “Peak position of M1 macrophage” value was 7.14 and the “Peak position of M2 macrophage” value was 13.0. The “Evaluation” value was “B (the compound is good in the subtype identification (namely, the resolution R is 0.15 or more and less than 0.5))”.
